Results reported in patent publication US20180139987A1, “PHARMACEUTICAL POWDER COMPOSITION AND ITS USE IN THE CONTROL OF POST-PRANDIAL GLYCAEMIC PROFILE” (OMNIBLEND INNOVATION PTY LTD, priority 2015, published 2018).

Assays:
[1] = tested on: subject with type 2 diabetes; assay: Post-prandial glycemic profile (finger-prick blood sugar) after white bread breakfast, subjects with type 2 diabetes; assay type: in vivo, human
Excerpt: 2 slices of thick-cut savoury white bread spread with 29 g jam (over both slices) were eaten together with a cup of tea or coffee. A total available carbohydrate per serve was 50 g. 2 slices of thick-cut savoury white bread spread with 29 g jam (over both slices) were eaten together with a cup of tea or coffee. […] A total available carbohydrate per serve was 50 g. Finger-prick blood sugar readings were taken before consumption of the standard meal in the morning (i.e. the standard meal was breakfast). Two readings were taken and the average value was used as the blood sugar reading. After consumption of the meal, another blood sugar reading was taken. Further blood sugar readings were taken at 15-minute intervals thereafter. […] This was the first glycemic test profile. […] This was the second glycemic test profile. […] This was the first test glycemic profile. […] This was the second glycemic test profile.

Healthy Participant = assay: Post-prandial glycemic profile (finger-prick blood sugar) after white rice breakfast, healthy participant; assay type: in vivo, human; details: HP2 healthy participant, 125 g white rice
Excerpt: 125 g microwaveable white rice (details, amount of available carbohydrate?) was eaten together with a cup of water. Finger-prick blood sugar readings were taken before consumption of the standard meal in the morning (i.e. the standard meal was breakfast). Two readings were taken and the average value was used as the blood sugar reading. After consumption of the meal, another blood sugar reading was taken. Further blood sugar readings were taken at 15-minute intervals thereafter. A subject (HP2, Healthy Participant) was given a standard white rice breakfast, containing 125 g cooked white rice (example A3), and was tested for post-prandial glycemic profile-this was the first control glycemic profile. […] This was the third control glycemic profile. On another day, the same subject was given the acarbose-containing pre-meal drink described in example A1 (this drink is prepared according to the invention). This was the test glycemicsrofile.

[2] = tested on: subject with type 2 diabetes; assay: Post-prandial glycemic profile (finger-prick blood sugar) after white rice breakfast, subjects with type 2 diabetes; assay type: in vivo, human
Protocol: 160 g microwaveable white rice (details, amount of available carbohydrate?) was eaten together with a cup of water.
240 g microwaveable white rice (Uncle Bens Brand Microwavable White Rice, […] of available carbohydrate) and 200 ml of hot tea.
Finger-prick blood sugar readings were taken before consumption of the standard meal in the morning (i.e. the standard meal was breakfast). Two readings were taken and the average value was used as the blood sugar reading. After consumption of the meal, another blood sugar reading was taken. Further blood sugar readings were taken at 15-minute intervals thereafter.
A subject with type 2 diabetes (T2D1, person) was given a standard white rice breakfast (Example A2) and was tested for post-prandial glycemic profile—this was the first control glycemic profile. […] This was the third control glycemic profile. […] This was the test glycemic profile. […]
A subject with type 2 diabetes (T2D5, person) was given a standard white rice breakfast (Example A2) and was tested for post-prandial glycemic profile—this was the first control glycemic profile. […] This was the third control glycemic profile. […] This was the test glycemic profile.
This was the second glycemic test profile.
This was the second test glycemic profile.
This was the first glycemic test profile.

patients = details: 1255 patients, Acarbose tablets 50-300 mg t.i.d.; cited from earlier work

C[C@H]1O[C@H](O[C@H]2[C@H](O)[C@@H](O)[C@@H](O[C@H]3[C@H](O)[C@@H](O)C(O)O[C@@H]3CO)O[C@@H]2CO)[C@H](O)[C@@H](O)[C@@H]1N[C@H]1C=C(CO)[C@@H](O)[C@H](O)[C@H]1O (stereo partly shown) [acarbose]
glycemic profile (mM blood glucose) ([1]; T2D5, 2 slices white bread + 29 g jam (Example B4), time after eating 0 min): 8.5 mM
glycemic profile (mM blood glucose) ([1]; T2D5, 2 slices white bread + 29 g jam (Example B4), time after eating 15 min): 9.3 mM
glycemic profile (mM blood glucose) ([1]; T2D5, 2 slices white bread + 29 g jam (Example B4), time after eating 30 min): 9.5 mM
glycemic profile (mM blood glucose) ([1]; T2D5, 2 slices white bread + 29 g jam (Example B4), time after eating 45 min): 9.65 mM
glycemic profile (mM blood glucose) ([1]; T2D5, 2 slices white bread + 29 g jam (Example B4), time after eating 60 min): 9.85 mM
glycemic profile (mM blood glucose) ([1]; T2D5, 2 slices white bread + 29 g jam (Example B4), time after eating 75 min): 9.6 mM
glycemic profile (mM blood glucose) ([1]; T2D5, 2 slices white bread + 29 g jam (Example B4), time after eating 90 min): 9.8 mM
glycemic profile (mM blood glucose) ([1]; T2D5, 2 slices white bread + 29 g jam (Example B4), time after eating 105 min): 9.35 mM
glycemic profile (mM blood glucose) ([1]; T2D5, 2 slices white bread + 29 g jam (Example B4), time after eating 120 min): 9.05 mM
glycemic profile (mM blood glucose) ([1]; T2D5, 2 slices white bread + 29 g jam (Example B4), time after eating 135 min): 7.65 mM
glycemic profile (mM blood glucose) ([1]; T2D5, 2 slices white bread + 29 g jam (Example B4), time after eating 150 min): 6.93 mM
glycemic profile (mM blood glucose) ([1]; T2D5, 2 slices white bread + 29 g jam (Example B4), time after eating 165 min): 6.55 mM
glycemic profile (mM blood glucose) ([1]; T2D5, 2 slices white bread + 29 g jam (Example B4), time after eating 180 min): 5.35 mM
glycemic profile (mM blood glucose) ([1]; T2D5, 2 slices white bread + 29 g jam (Example B4), time after eating −10 min): 6.5 mM
glycemic profile (mM blood glucose) ([1]; T2D5, 2 slices white bread + 29 g jam (Example B4), time after eating −25 min): 6.25 mM
glycemic profile (mM blood glucose) ([1]; T2D9, 2 slices white bread + 29 g jam (Example B5), time after eating 0 min): 11.8 mM
glycemic profile (mM blood glucose) ([1]; T2D9, 2 slices white bread + 29 g jam (Example B5), time after eating 15 min): 12.8 mM
glycemic profile (mM blood glucose) ([1]; T2D9, 2 slices white bread + 29 g jam (Example B5), time after eating 30 min): 11.6 mM
glycemic profile (mM blood glucose) ([1]; T2D9, 2 slices white bread + 29 g jam (Example B5), time after eating 45 min): 11.3 mM
glycemic profile (mM blood glucose) ([1]; T2D9, 2 slices white bread + 29 g jam (Example B5), time after eating 60 min): 11.4 mM
glycemic profile (mM blood glucose) ([1]; T2D9, 2 slices white bread + 29 g jam (Example B5), time after eating 75 min): 11.1 mM
glycemic profile (mM blood glucose) ([1]; T2D9, 2 slices white bread + 29 g jam (Example B5), time after eating 90 min): 10.4 mM
glycemic profile (mM blood glucose) ([1]; T2D9, 2 slices white bread + 29 g jam (Example B5), time after eating 105 min): 11.0 mM
glycemic profile (mM blood glucose) ([1]; T2D9, 2 slices white bread + 29 g jam (Example B5), time after eating 120 min): 11.8 mM
glycemic profile (mM blood glucose) ([1]; T2D9, 2 slices white bread + 29 g jam (Example B5), time after eating 135 min): 11.2 mM
glycemic profile (mM blood glucose) ([1]; T2D9, 2 slices white bread + 29 g jam (Example B5), time after eating 150 min): 11.8 mM
glycemic profile (mM blood glucose) ([1]; T2D9, 2 slices white bread + 29 g jam (Example B5), time after eating 165 min): 12.9 mM
glycemic profile (mM blood glucose) ([1]; T2D9, 2 slices white bread + 29 g jam (Example B5), time after eating 180 min): 10.2 mM
glycemic profile (mM blood glucose) ([1]; T2D9, 2 slices white bread + 29 g jam (Example B5), time after eating −10 min): 9.9 mM
glycemic profile (mM blood glucose) ([1]; T2D9, 2 slices white bread + 29 g jam (Example B5), time after eating −25 min): 10.4 mM
glycemic profile (mM blood glucose) (Healthy Participant; time after eating 0 min): 6.03 mM
glycemic profile (mM blood glucose) (Healthy Participant; time after eating 15 min): 6.4 mM
glycemic profile (mM blood glucose) (Healthy Participant; time after eating 30 min): 7.04 mM
glycemic profile (mM blood glucose) (Healthy Participant; time after eating 45 min): 6.75 mM
glycemic profile (mM blood glucose) (Healthy Participant; time after eating 60 min): 5.9 mM
glycemic profile (mM blood glucose) (Healthy Participant; time after eating 75 min): 6.1 mM
glycemic profile (mM blood glucose) (Healthy Participant; time after eating 90 min): 6.175 mM
glycemic profile (mM blood glucose) (Healthy Participant; time after eating 105 min): 5.8 mM
glycemic profile (mM blood glucose) (Healthy Participant; time after eating 120 min): 6.3 mM
glycemic profile (mM blood glucose) (Healthy Participant; time after eating 135 min): 6.23 mM
glycemic profile (mM blood glucose) (Healthy Participant; time after eating −15 min): 5.65 mM
glycemic profile (mM blood glucose) ([2]; T2D1, 240 g white rice (Example B3), time after eating 30 min): 9.32 mM
glycemic profile (mM blood glucose) ([2]; T2D1, 240 g white rice (Example B3), time after eating 60 min): 10.4 mM
glycemic profile (mM blood glucose) ([2]; T2D1, 240 g white rice (Example B3), time after eating 75 min): 11.0 mM
glycemic profile (mM blood glucose) ([2]; T2D1, 240 g white rice (Example B3), time after eating 90 min): 10.8 mM
glycemic profile (mM blood glucose) ([2]; T2D1, 240 g white rice (Example B3), time after eating 105 min): 11 mM
glycemic profile (mM blood glucose) ([2]; T2D1, 240 g white rice (Example B3), time after eating 120 min): 10.4 mM
glycemic profile (mM blood glucose) ([2]; T2D1, 240 g white rice (Example B3), time after eating 135 min): 10.4 mM
glycemic profile (mM blood glucose) ([2]; T2D1, 240 g white rice (Example B3), time after eating 165 min): 9.45 mM
glycemic profile (mM blood glucose) ([2]; T2D1, 240 g white rice (Example B3), time after eating 180 min): 9.66 mM
glycemic profile (mM blood glucose) ([2]; T2D1, 240 g white rice (Example B3), time after eating −25 min): 7.3 mM
glycemic profile (mM blood glucose) ([2]; T2D1, 240 g white rice (Example B7), time after eating 30 min): 9.32 mM
glycemic profile (mM blood glucose) ([2]; T2D1, 240 g white rice (Example B7), time after eating 60 min): 10.4 mM
glycemic profile (mM blood glucose) ([2]; T2D1, 240 g white rice (Example B7), time after eating 75 min): 11.0 mM
glycemic profile (mM blood glucose) ([2]; T2D1, 240 g white rice (Example B7), time after eating 90 min): 10.8 mM
glycemic profile (mM blood glucose) ([2]; T2D1, 240 g white rice (Example B7), time after eating 105 min): 11 mM
glycemic profile (mM blood glucose) ([2]; T2D1, 240 g white rice (Example B7), time after eating 120 min): 10.4 mM
glycemic profile (mM blood glucose) ([2]; T2D1, 240 g white rice (Example B7), time after eating 135 min): 10.4 mM
glycemic profile (mM blood glucose) ([2]; T2D1, 240 g white rice (Example B7), time after eating 165 min): 9.45 mM
glycemic profile (mM blood glucose) ([2]; T2D1, 240 g white rice (Example B7), time after eating 180 min): 9.66 mM
glycemic profile (mM blood glucose) ([2]; T2D1, 240 g white rice (Example B7), time after eating −25 min): 7.3 mM
glycemic profile (mM blood glucose) ([2]; T2D1, standard white rice breakfast (Example A2, 160 g), time after eating 45 min): 9.6 mM
glycemic profile (mM blood glucose) ([2]; T2D1, standard white rice breakfast (Example A2, 160 g), time after eating 60 min): 9.8 mM
glycemic profile (mM blood glucose) ([2]; T2D1, standard white rice breakfast (Example A2, 160 g), time after eating 75 min): 9.6 mM
glycemic profile (mM blood glucose) ([2]; T2D1, standard white rice breakfast (Example A2, 160 g), time after eating 90 min): 10.9 mM
glycemic profile (mM blood glucose) ([2]; T2D1, standard white rice breakfast (Example A2, 160 g), time after eating 105 min): 9.65 mM
glycemic profile (mM blood glucose) ([2]; T2D1, standard white rice breakfast (Example A2, 160 g), time after eating 120 min): 10.25 mM
glycemic profile (mM blood glucose) ([2]; T2D1, standard white rice breakfast (Example A2, 160 g), time after eating 135 min): 9.82 mM
glycemic profile (mM blood glucose) ([2]; T2D1, standard white rice breakfast (Example A2, 160 g), time after eating 150 min): 9.26 mM
glycemic profile (mM blood glucose) ([2]; T2D5, 240 g white rice (Example B2), time after eating 0 min): 7.4 mM
glycemic profile (mM blood glucose) ([2]; T2D5, 240 g white rice (Example B2), time after eating 30 min): 10.4 mM
glycemic profile (mM blood glucose) ([2]; T2D5, 240 g white rice (Example B2), time after eating 45 min): 10.1 mM
glycemic profile (mM blood glucose) ([2]; T2D5, 240 g white rice (Example B2), time after eating 60 min): 9.7 mM
glycemic profile (mM blood glucose) ([2]; T2D5, 240 g white rice (Example B2), time after eating 75 min): 9.95 mM
glycemic profile (mM blood glucose) ([2]; T2D5, 240 g white rice (Example B2), time after eating 165 min): 7.3 mM
glycemic profile (mM blood glucose) ([2]; T2D5, 240 g white rice (Example B2), time after eating 180 min): 6.5 mM
glycemic profile (mM blood glucose) ([2]; T2D5, 240 g white rice (Example B2), time after eating −10 min): 5.2 mM
glycemic profile (mM blood glucose) ([2]; T2D5, 240 g white rice (Example B2), time after eating −25 min): 5 mM
glycemic profile (mM blood glucose) ([2]; T2D5, 240 g white rice (Example B6), time after eating 0 min): 7.4 mM
glycemic profile (mM blood glucose) ([2]; T2D5, 240 g white rice (Example B6), time after eating 30 min): 10.4 mM
glycemic profile (mM blood glucose) ([2]; T2D5, 240 g white rice (Example B6), time after eating 45 min): 10.15 mM
glycemic profile (mM blood glucose) ([2]; T2D5, 240 g white rice (Example B6), time after eating 60 min): 9.76 mM
glycemic profile (mM blood glucose) ([2]; T2D5, 240 g white rice (Example B6), time after eating 75 min): 9.95 mM
glycemic profile (mM blood glucose) ([2]; T2D5, 240 g white rice (Example B6), time after eating 165 min): 7.3 mM
glycemic profile (mM blood glucose) ([2]; T2D5, 240 g white rice (Example B6), time after eating 180 min): 6.5 mM
glycemic profile (mM blood glucose) ([2]; T2D5, 240 g white rice (Example B6), time after eating −10 min): 5.2 mM
glycemic profile (mM blood glucose) ([2]; T2D5, 240 g white rice (Example B6), time after eating −25 min): 5 mM
peak glucose height, rise above baseline ([2]; T2D5, 240 g white rice, baselines of both profiles matched): 5.3 mmol/L
incidence of abdominal pain (patients): 19%
incidence of diarrhea (patients): 31%
incidence of flatulence (patients): 74%
